Test results published in patent publication US8017606B2, “Quinoline derivatives as antibacterial agents” (Janssen Pharmaceutica NV, priority 2005, dated 2011).
Converted amounts (≈) assume the structure as drawn. Counter-ions that a name gives are not always drawn.

Columns and labels:
[1] = test system: Bacillus subtilis (ATCC43639); assay: Microtitre plate assay, IC90 determination; assay type: cell-based; conditions: 90% inhibitory concentration for bacterial growth, 37° C., resazurin fluorescence, read-out: IC90 (μg/ml) BSU 43639
Method: (§1) The bacteria used in this study were grown overnight in flasks containing 100 ml Mueller-Hinton Broth (Becton Dickinson—cat. no. 275730) in sterile de-ionized water, with shaking, at 37° C. Stocks (0.5 ml/tube) were stored at −70° C. until use. Bacteria titrations were performed in microtiter plates and colony forming units (CFUs) were determined. In general, an inoculum level of approximately 100 CFUs was used for susceptibility testing.
(§2) Anti Bacterial Susceptibility Testing: IC90 Determination
(§3) Flat-bottom, sterile 96-well plastic microtiter plates were filled with 180 μl of sterile deionized water, supplemented with 0.25% BSA. Subsequently, stock solutions (7.8×final test concentration) of compounds were added in 45 μl volumes in column 2 Serial five-fold dilutions (45 μl in 180 μl) were made directly in the microtiter plates from column 2 to reach column 11. Untreated control samples with (column 1) and without (column 12) inoculum were included in each microtiter plate. Depending on the bacteria type, approximately 10 to 60 CFU per well of bacteria inoculum (100 TCID50), in a volume of 100 μl in 2.8× Mueller-Hinton broth medium, was added to the rows A to H, except column 12. The same volume of broth medium without inoculum was added to column 12 in row A to H. The cultures were incubated at 37° C. for 24 hours under a normal atmosphere (incubator with open air valve and continuous ventilation). At the end of incubation, one day after inoculation, the bacterial growth was quantitated fluorometrically. Therefore resazurin (0.6 mg/ml) was added in a volume of 20 μl to all wells […], and the plates were re-incubated overnight. A change in colour from blue to pink indicated the growth of bacteria.
(§4) The fluorescence was read in a computer-controlled fluorometer (Cytofluor Biosearch) at an excitation wavelength of 530 nm and an emission wavelength of 590 nm. The % growth inhibition achieved by the compounds was calculated according to standard methods. The IC90 (expressed in μg/ml) was defined as the 90% inhibitory concentration for bacterial growth.

[2] = test system: Enterococcus faecalis (ATCC29212); assay: Microtitre plate assay, IC90 determination; assay type: cell-based; conditions: 90% inhibitory concentration for bacterial growth, 37° C., resazurin fluorescence, read-out: IC90 (μg/ml) EFA 29212
Method: as §1, §2, §3, §4

[3] = test system: Listeria monocytogenes (ATCC49594); assay: Microtitre plate assay, IC90 determination; assay type: cell-based; conditions: 90% inhibitory concentration for bacterial growth, 37° C., resazurin fluorescence, read-out: IC90 (μg/ml) LMO 49594
Method: as §1, §2, §3, §4

[4] = test system: Pseudomonas aeruginosa (ATCC27853); assay: Microtitre plate assay, IC90 determination; assay type: cell-based; conditions: 90% inhibitory concentration for bacterial growth, 37° C., resazurin fluorescence, read-out: IC90 (μg/ml) PAE 27853
Method: as §1, §2, §3, §4

[5] = test system: Staphylococcus aureus (ATCC25923); assay: Microtitre plate assay, IC90 determination; assay type: cell-based; conditions: 90% inhibitory concentration for bacterial growth, 37° C., resazurin fluorescence, read-out: IC90 (μg/ml) STA 25923
Method: as §1, §2, §3, §4

[6] = test system: Staphylococcus aureus (ATCC29213); assay: Microtitre plate assay, IC90 determination; assay type: cell-based; conditions: 90% inhibitory concentration for bacterial growth, 37° C., resazurin fluorescence, read-out: IC90 (μg/ml) STA 29213
Method: as §1, §2, §3, §4

[7] = test system: Staphylococcus aureus (ATCC43300); assay: Microtitre plate assay, IC90 determination; assay type: cell-based; conditions: 90% inhibitory concentration for bacterial growth, 37° C., resazurin fluorescence, read-out: IC90 (μg/ml) STA 43300
Method: as §1, §2, §3, §4

[8] = test system: Streptococcus mutans (ATCC33402); assay: Microtitre plate assay, IC90 determination; assay type: cell-based; conditions: 90% inhibitory concentration for bacterial growth, 37° C., resazurin fluorescence, read-out: IC90 (μg/ml) SMU 33402
Method: as §1, §2, §3, §4

[9] = test system: Streptococcus pneumoniae (ATCC6305); assay: Microtitre plate assay, IC90 determination; assay type: cell-based; conditions: 90% inhibitory concentration for bacterial growth, 37° C., resazurin fluorescence, read-out: IC90 (μg/ml) SPN 6305
Method: as §1, §2, §3, §4

[10] = test system: Streptococcus pyogens (ATCC8668); assay: Microtitre plate assay, IC90 determination; assay type: cell-based; conditions: 90% inhibitory concentration for bacterial growth, 37° C., resazurin fluorescence, read-out: IC90 (μg/ml) SPY 8668
Method: as §1, §2, §3, §4

[11] = test system: methicilline resistant Staphylococcus aureus (MRSA) (a clinical isolate from the University of Antwerp); assay: Microtitre plate assay, IC90 determination; assay type: cell-based; conditions: 90% inhibitory concentration for bacterial growth, 37° C., resazurin fluorescence, read-out: IC90 (μg/ml) STA RMETHIC
Method: as §1, §2, §3, §4

[12] = test system: Enterococcus faecalis (ATCC14506); assay: Microtitre plate assay, IC90 determination; assay type: cell-based; conditions: 90% inhibitory concentration for bacterial growth, 37° C., resazurin fluorescence, read-out: IC90 (μg/ml) EFA 14506
Method: as §1, §2, §3, §4

Structure (SMILES)	melting point [°C]	IC90 [1] [µg/mL]	IC90 [2] [µg/mL]	IC90 [3] [µg/mL]	IC90 [4] [µg/mL]	IC90 [5] [µg/mL]	IC90 [6] [µg/mL]	IC90 [7] [µg/mL]	IC90 [8] [µg/mL]	IC90 [9] [µg/mL]	IC90 [10] [µg/mL]	IC90 [12] [µg/mL]	IC90 [11] [µg/mL]
CN(C)CCC(O)(c1cc(F)cc(F)c1)c1cc(Br)cc2cc(Cc3ccccc3)c(-n3ccnc3)nc12 (stereo not drawn) [Compound 19]		14.5 (≈ 25.1 µM)	14.5 (≈ 25.1 µM)	14.5 (≈ 25.1 µM)	14.5 (≈ 25.1 µM)	12.9 (≈ 22.3 µM)	14.5 (≈ 25.1 µM)	11.5 (≈ 19.9 µM)	11.5 (≈ 19.9 µM)	14.5 (≈ 25.1 µM)	11.5 (≈ 19.9 µM)		14.5 (≈ 25.1 µM)
COc1nc2c(C(O)(CCN(C)C)c3cc(F)cc(F)c3)cc(Br)cc2cc1Cc1ccccc1 (stereo not drawn) [Compound 12]		13.6 (≈ 25.1 µM)	13.6 (≈ 25.1 µM)	13.6 (≈ 25.1 µM)	10.8 (≈ 19.9 µM)	12.1 (≈ 22.3 µM)	10.8 (≈ 19.9 µM)	10.8 (≈ 19.9 µM)	10.8 (≈ 19.9 µM)	12.1 (≈ 22.3 µM)	10.8 (≈ 19.9 µM)	10.8 (≈ 19.9 µM)	12.1 (≈ 22.3 µM)
COc1nc2c(C(O)(CCN(C)C)c3ccccc3)cc(Br)cc2cc1Cc1ccccc1 (stereo not drawn) [Compound 8]	66	12.7 (≈ 25.1 µM)		40.2 (≈ 79.5 µM)	12.7 (≈ 25.1 µM)	11.3 (≈ 22.4 µM)	10.1 (≈ 20 µM)		10.1 (≈ 20 µM)	11.3 (≈ 22.4 µM)	10.1 (≈ 20 µM)	11.3 (≈ 22.4 µM)	11.3 (≈ 22.4 µM)
COc1nc2cccc(C(O)(CCN(C)C)c3cc4ccccc4o3)c2cc1-c1ccccc1 (stereo not drawn) [Compound 6]		11.4 (≈ 25.2 µM)	11.4 (≈ 25.2 µM)	11.4 (≈ 25.2 µM)	9 (≈ 19.9 µM)	11.4 (≈ 25.2 µM)	9 (≈ 19.9 µM)	9 (≈ 19.9 µM)	9 (≈ 19.9 µM)	11.4 (≈ 25.2 µM)	9 (≈ 19.9 µM)		10.1 (≈ 22.3 µM)

Second part, led by results:

melting point [°C]	IC90 [1] [µg/mL]	IC90 [2] [µg/mL]	IC90 [3] [µg/mL]	IC90 [4] [µg/mL]	IC90 [5] [µg/mL]	IC90 [6] [µg/mL]	IC90 [7] [µg/mL]	IC90 [8] [µg/mL]	IC90 [9] [µg/mL]	IC90 [10] [µg/mL]	IC90 [12] [µg/mL]	Structure (SMILES)	IC90 [11] [µg/mL]
156												COc1nc2c(C(O)(CCN(C)C)c3cc(F)cc(F)c3)cc(-c3cccnc3)cc2cc1-c1ccccc1 (stereo not drawn) (as salt: salt) [Compound 64]	
136		14.2 (≈ 25.2 µM)	14.2 (≈ 25.2 µM)	14.2 (≈ 25.2 µM)	12.6 (≈ 22.4 µM)	14.2 (≈ 25.2 µM)		11.2 (≈ 19.9 µM)	12.6 (≈ 22.4 µM)	11.2 (≈ 19.9 µM)		CN(C)CCC(O)(c1cc(F)cc(F)c1)c1cc(Br)cc2cc(-c3ccccc3)c(-n3ccnc3)nc12 (stereo not drawn) [Compound 22]	14.2 (≈ 25.2 µM)
190	52.8 (≈ 100 µM)	13.3 (≈ 25.2 µM)	41.9 (≈ 79.4 µM)	13.3 (≈ 25.2 µM)	52.8 (≈ 100 µM)	13.3 (≈ 25.2 µM)			13.3 (≈ 25.2 µM)	13.3 (≈ 25.2 µM)		CN(C)CCC(O)(c1cccc2ccccc12)c1cc(Br)cc2cc(-c3ccccc3)c(=O)[nH]c12 (stereo not drawn) [Compound 69]	52.8 (≈ 100 µM)
123	11.5 (≈ 25.1 µM)	11.5 (≈ 25.1 µM)	9.2 (≈ 20.1 µM)	11.5 (≈ 25.1 µM)	11.5 (≈ 25.1 µM)	11.5 (≈ 25.1 µM)		9.2 (≈ 20.1 µM)	11.5 (≈ 25.1 µM)	9.2 (≈ 20.1 µM)		COc1nc2ccccc2c(CC(O)(CCN(C)C)c2cccc(F)c2)c1Cc1ccccc1 (stereo not drawn) [Compound 71]	11.5 (≈ 25.1 µM)
151												CN(C)CCC(O)(c1cc(F)cc(F)c1)c1ccc2nc(-c3cccnc3)cc(-c3ccccc3)c2c1 (stereo not drawn) (as salt: salt) [Compound 42]	
